Source: ChEMBL document CHEMBL1697821, “Development of a phospholipidosis database and predictive quantitative structure-activity relationship (QSAR) models” (Toxicol Mech Methods, 2008)

Tested on: Phospholipidosis
Assay: Literature-mined public compounds from Kruhlak et al phospholipidosis modelling dataset

| Structure (SMILES) | Phospholipidosis |
| --- | --- |
| NS(=O)(=O)c1cc(Cl)c(Cl)c(S(N)(=O)=O)c1 [DICHLORPHENAMIDE] | Negative: based on the absence of positive reported data from WMDD |
| CN1Cc2c(N)cccc2C(c2ccccc2)C1 (stereo not given) [NOMIFENSINE] | Negative: based on the absence of positive reported data from WMDD |
| CCCC(CCC)C(N)=O [VALPROMIDE] | Negative: based on the absence of positive reported data from WMDD |
| CC[C@H]1OC(=O)[C@H](C)[C@@H](O[C@H]2C[C@@](C)(OC)[C@@H](O)[C@H](C)O2)[C@H](C)[C@@H](O[C@@H]2O[C@H](C)C[C@H](N(C)C)[C@H]2O)[C@](C)(O)C[C@@H](C)CN(C)[C@H](C)[C@@H](O)[C@]1(C)O [AZITHROMYCIN] | Positive: weak inducer based on presence of foamy macrophages and cytoplasmic vacuolations |
| CC[N+](C)(C)Cc1ccccc1Br.Cc1ccc(S(=O)(=O)[O-])cc1 [BRETYLIUM TOSYLATE] | Negative: based on the absence of positive reported data from WMDD |
| CCc1nn(CCCN2CCN(c3cccc(Cl)c3)CC2)c(=O)n1CCOc1ccccc1 [NEFAZODONE] | Negative: based on the absence of positive reported data from WMDD |
| C=CC1=C(C(=O)O)N2C(=O)[C@@H](NC(=O)/C(=N\OCC(=O)O)c3csc(N)n3)[C@H]2SC1 [CEFIXIME] | Negative: based on the absence of positive reported data from WMDD |
| [H]/N=C(/N)N[C@H]1[C@H](O)[C@@H](O)[C@H](O[C@@H]2O[C@@H](C)[C@](O)(C=O)[C@H]2O[C@@H]2O[C@@H](CO)[C@H](O)[C@@H](O)[C@@H]2NC)[C@@H](N/C(N)=N\[H])[C@@H]1O [STREPTOMYCIN] | Negative: based on the absence of positive reported data from WMDD |
| CC(C)(O/N=C(\C(=O)N[C@@H]1C(=O)N2C(C(=O)[O-])=C(C[n+]3ccccc3)CS[C@H]12)c1csc(N)n1)C(=O)O [CEFTAZIDIME] | Negative: based on the absence of positive reported data from WMDD |
| CC(CN(C)C)C(C)(O)Cc1ccc(Cl)cc1 (stereo not given) [CLOBUTINOL] | Negative: based on the absence of positive reported data from WMDD |
| Oc1ncnc2[nH]ncc12 [ALLOPURINOL] | Positive: weak inducer based on presence of foamy macrophages and cytoplasmic vacuolations |
| COc1cc(CC2c3c(cc(OC)c(OC)c3OC)CC[N+]2(C)CCCOC(=O)CCC(=O)OCCC[N+]2(C)CCc3cc(OC)c(OC)c(OC)c3C2Cc2cc(OC)c(OC)c(OC)c2)cc(OC)c1OC.[Cl-].[Cl-] (stereo not given) [DOXACURIUM CHLORIDE] | Negative: based on the absence of positive reported data from WMDD |
| CC[C@]1(O)CC[C@H]2[C@@H]3CCC4=CCCC[C@@H]4[C@H]3CC[C@@]21C | Negative: based on the absence of positive reported data from WMDD |
| CN(C)[C@@H]1C(O)=C(C(N)=O)C(=O)[C@@]2(O)C(O)=C3C(=O)c4c(O)cccc4[C@@](C)(O)[C@H]3C[C@@H]12 [TETRACYCLINE] | Negative: confirmed by electron microscopy |
| CC(C)[N+](C)(CCOC(=O)C1c2ccccc2Oc2ccccc21)C(C)C.[Br-] [PROPANTHELINE BROMIDE] | Negative: based on the absence of positive reported data from WMDD |
| Cc1ncc2n1-c1ccc(Cl)cc1C(c1ccccc1F)=NC2 [MIDAZOLAM] | Negative: based on the absence of positive reported data from WMDD |
| OC[C@@H](O)[C@@H](O)[C@H](O)[C@@H](O)CO [SORBITOL] | Negative: based on the absence of positive reported data from WMDD |
| CN1CCC2=C(C1)C(c1ccccc1)c1ccccc12 (stereo not given) [PHENINDAMINE] | Negative: based on the absence of positive reported data from WMDD |
| COCCCC/C(=N\OCCN)c1ccc(C(F)(F)F)cc1 [FLUVOXAMINE] | Positive: weak inducer based on presence of foamy macrophages and cytoplasmic vacuolations |
| CC1(C)C(=O)NC(=O)N1CC(COc1ccc(-c2ccc(OC(F)(F)F)cc2)cc1)NC=O (stereo not given) | Negative: confirmed by electron microscopy |
| CNCCC=C1c2ccccc2CCc2ccccc21 [NORTRIPTYLINE] | Positive: strong inducer confirmed by electron microscopy |
| NCCc1c[nH]cn1 [HISTAMINE] | Negative: based on the absence of positive reported data from WMDD |
| C[C@H]1C[C@H]2[C@@H]3CCC4=CC(=O)C=C[C@]4(C)[C@H]3C(=O)C[C@]2(C)[C@@]1(O)C(=O)CO [MEPREDNISONE] | Negative: based on the absence of positive reported data from WMDD |
| CC(CN1c2ccccc2Sc2ccccc21)N(C)C (stereo not given) [PROMETHAZINE] | Positive: weak inducer based on presence of foamy macrophages and cytoplasmic vacuolations |
| Cn1c(=O)c2c(ncn2CC(O)CO)n(C)c1=O (stereo not given) [DYPHYLLINE] | Negative: based on the absence of positive reported data from WMDD |
| CCN(CC)CCCC(C)Nc1c2ccc(Cl)cc2nc2ccc(OC)cc12 (stereo not given) [QUINACRINE] | Positive: strong inducer confirmed by electron microscopy |
| O=C(O)CCC(=O)c1ccc(C2CCCCC2)c(Cl)c1 [BUCLOXIC ACID] | Negative: based on the absence of positive reported data from WMDD |
| CCCCNC(=O)NS(=O)(=O)c1ccc(N)cc1 [CARBUTAMIDE] | Negative: based on the absence of positive reported data from WMDD |

| Structure (SMILES) | Phospholipidosis |
| --- | --- |
| CN(C)CCc1c[nH]c2ccc(Cn3cncn3)cc12 [RIZATRIPTAN] | Negative: based on the absence of positive reported data from WMDD |
| O=c1cc[nH]c(=S)[nH]1 [THIOURACIL] | Negative: based on the absence of positive reported data from WMDD |
| CN1CCN(C2=Nc3ccccc3Sc3ccc(Cl)cc32)CC1 [CLOTHIAPINE] | Negative: based on the absence of positive reported data from WMDD |
| NNC(=O)c1ccncc1 [ISONIAZID] | Negative: based on the absence of positive reported data from WMDD |
| CCCN(CCC)S(=O)(=O)c1ccc(C(=O)O)cc1 [PROBENECID] | Negative: based on the absence of positive reported data from WMDD |
| NS(=O)(=O)c1cc(C(=O)O)c(NCc2ccco2)cc1Cl [FUROSEMIDE] | Negative: confirmed by electron microscopy |
| NCC[C@H](O)C(=O)N[C@@H]1C[C@H](N)[C@@H](O[C@H]2O[C@H](CN)[C@@H](O)[C@H](O)[C@H]2O)[C@H](O)[C@H]1O[C@H]1O[C@H](CO)[C@@H](O)[C@H](N)[C@H]1O [AMIKACIN] | Positive: strong inducer confirmed by electron microscopy |
| C[N+]1(C)CCN(CC(O)(c2ccccc2)C2CCCCC2)CC1 (stereo not given) [HEXOCYCLIUM] | Negative: based on the absence of positive reported data from WMDD |
| OCC(O)CO [GLYCERIN] | Negative: based on the absence of positive reported data from WMDD |
| CC(=O)OC[C@H]1O[C@@H](n2ncc(=O)[nH]c2=O)[C@H](OC(C)=O)[C@@H]1OC(C)=O [AZARIBINE] | Negative: based on the absence of positive reported data from WMDD |
| CC(C)C[C@H](N)C(=O)O [LEUCINE] | Negative: based on the absence of positive reported data from WMDD |
| CC[C@]1(O)C[C@@H]2CN(CCc3c([nH]c4ccccc34)[C@@](C(=O)OC)(c3cc4c(cc3OC)N(C)[C@H]3[C@@](O)(C(N)=O)[C@H](O)[C@]5(CC)C=CCN6CC[C@]43[C@@H]65)C2)C1 [VINDESINE] | Negative: based on the absence of positive reported data from WMDD |
| CCC1(c2ccc(N)cc2)CCC(=O)NC1=O (stereo not given) [AMINOGLUTETHIMIDE] | Negative: based on the absence of positive reported data from WMDD |
| CN1CCCCC1CCN1c2ccccc2Sc2ccc([S+](C)[O-])cc21 (stereo not given) [MESORIDAZINE] | Positive: weak inducer based on presence of foamy macrophages and cytoplasmic vacuolations |
| COc1ccc(C(CN(C)C)C2(O)CCCCC2)cc1 (stereo not given) [VENLAFAXINE] | Negative: based on the absence of positive reported data from WMDD |
| CC[C@@H]1C(=O)OC[C@@H]1Cc1cncn1C [PILOCARPINE] | Negative: based on the absence of positive reported data from WMDD |
| CC(C)NCC(O)COc1cccc2ccccc12 (stereo not given) [PROPRANOLOL] | Positive: weak inducer based on presence of foamy macrophages and cytoplasmic vacuolations |
| CCCCN(CCCC)CCNc1nc(-c2ccccc2)no1 [BUTALAMINE] | Negative: based on the absence of positive reported data from WMDD |
| OC[C@H]1O[C@H](O[C@H]2[C@H](O)[C@@H](O)[C@H](O)O[C@@H]2CO)[C@H](O)[C@@H](O)[C@@H]1O [MALTOSE] | Negative: based on the absence of positive reported data from WMDD |
| C=CCC1(C(C)CCC)C(=O)NC(=O)NC1=O (stereo not given) [SECOBARBITAL] | Negative: based on the absence of positive reported data from WMDD |
| C[C@]12C=CC(=O)C=C1CC[C@@H]1[C@@H]2CC[C@@]2(C)[C@H]1CC[C@]2(C)O [METHANDROSTENOLONE] | Negative: based on the absence of positive reported data from WMDD |
| CCC(=O)O[C@H]1CC[C@H]2[C@@H]3CC[C@H]4CC(=O)[C@H](C)C[C@]4(C)[C@H]3CC[C@]12C [DROMOSTANOLONE PROPIONATE] | Negative: based on the absence of positive reported data from WMDD |
| CCCN(CCC)C(=O)C(CCC(=O)O)NC(=O)c1ccccc1 (stereo not given) [PROGLUMIDE] | Negative: based on the absence of positive reported data from WMDD |
| C[C@H]1O[C@@H](O[C@H]2[C@@H](O)C[C@H](O[C@H]3[C@@H](O)C[C@H](O[C@H]4CC[C@@]5(C)[C@H](CC[C@@H]6[C@@H]5C[C@@H](O)[C@]5(C)[C@@H](C7=CC(=O)OC7)CC[C@]65O)C4)O[C@@H]3C)O[C@@H]2C)C[C@H](O)[C@@H]1O [DIGOXIN] | Negative: based on the absence of positive reported data from WMDD |
| Cc1ccc(C(=O)c2cc(O)c(O)c([N+](=O)[O-])c2)cc1 [TOLCAPONE] | Negative: based on the absence of positive reported data from WMDD |
| C[N+]1(C)[C@@H]2CC[C@H]1C[C@@H](OC(=O)C(O)c1ccccc1)C2.[Br-] (stereo not given in full) [HOMATROPINE METHYLBROMIDE] | Negative: based on the absence of positive reported data from WMDD |
| CCC(=O)O[C@@H](O[P@](=O)(CCCCc1ccccc1)CC(=O)N1C[C@H](C2CCCCC2)C[C@H]1C(=O)O)C(C)C [FOSINOPRIL] | Negative: based on the absence of positive reported data from WMDD |
